Test system: T1, SeLipC
T1 construct: gene lipC; Full gene with native signal peptide (33 aa) expressed in Rhodococcus sp; T104 (pENV19), secreted; purified on phenyl sepharose; The printed nt borders (870 nt) give about 289 codons, not 33 + 259
Assay: colorimetric p-nitrophenol release at […] nm, nonlinear hyperbolic fit
Assay type: biochemical, Streptomyces exfoliatus
Settings: 50 mM Tris/HCl pH 8.0, 37 °C; pNPP 10-800 µM; standard assay with isopropanol, gum arabic and sodium deoxycholate

Q: `CCCCCCCCCCCCCCCC(=O)Oc1ccc([N+](=O)[O-])cc1` [pNPP, p-nitrophenyl palmitate] was tested. Which Km did it give?
A: 49.6 ± 11.2 µM

Reference: paper PMC10707221, “A Novel Lipase from Streptomyces exfoliatus DSMZ 41693 for Biotechnological Applications” (International Journal of Molecular Sciences, 2023)
